These results are taken from PubChem BioAssay (NCI).

Several values for one entry are separate records, joined by “and”; a condition that tells them apart may be missing. Equal entries are not always repeated.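 Interpolation was linear, between the two tested concentrations surrounding the appropriate level; five concentrations were tested over 48 hours in 96-well plates. Abbreviation: GI50, concentration required for 50% inhibition of growth. TGI marks complete inhibition of growth.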

Among the test systems are M14 melanoma; CCRF-CEM leukemia; SK-MEL-2 melanoma; ACHN renal; SK-OV-3 ovarian; HCT-15 colon; SNB-19 CNS; MOLT-4 leukemia; SK-MEL-5 melanoma; IGROV1 ovarian.
Holding throughout (assay): NCI-60 cell line screen, 48 h

Take `O=C1c2cccnc2-c2nc(-c3ccccc3)cc3c2c1nc1ccccc13`: the GI50 with M14 melanoma was 3.57 µM; in the test with CCRF-CEM leukemia, 2.98 µM; in the test on SK-MEL-2 melanoma it was 5.53 µM; with ACHN renal, 1.09 µM; with SK-OV-3 ovarian, 9.58 µM; in the test on HCT-15 colon, 1.13 µM. Besides, the GI50 in the test on SNB-19 CNS is 3.71 µM; with MOLT-4 leukemia, 2.5 µM; with SK-MEL-5 melanoma, 1.27 µM; with IGROV1 ovarian, 2.35 µM. Besides, the TGI in the test on M14 melanoma amounted to 15.7 µM; in the test on CCRF-CEM leukemia it was 29.7 µM; in the test with SK-MEL-2 melanoma, 20.1 µM; with ACHN renal, 8 µM; with SK-OV-3 ovarian it was 25.2 µM; in the test on HCT-15 colon, 5.02 µM. For the same compound, the TGI in the test with SNB-19 CNS was 20.1 µM; in the test on MOLT-4 leukemia, 14.8 µM; with SK-MEL-5 melanoma, 3.88 µM; in the test with IGROV1 ovarian, 8.92 µM.
Turning to `Cn1cccc1C1CC(=O)N(CCC[Se]C#N)C1=O` (centres undefined), the GI50 with M14 melanoma was 1.56 µM; in the test with CCRF-CEM leukemia, 2.22 µM; in the test on SK-MEL-2 melanoma, 2.13 µM; in the test on ACHN renal it was 2.11 µM; in the test on SK-OV-3 ovarian it was 3.22 µM; with HCT-15 colon it was 2.35 µM. The GI50 is 1.62 µM with SNB-19 CNS, 2.16 µM with MOLT-4 leukemia, 1.96 µM in the test with SK-MEL-5 melanoma and 1.86 µM with IGROV1 ovarian. The TGI in the test on M14 melanoma is 3.89 µM; in the test with CCRF-CEM leukemia it was 7.66 µM; in the test on SK-MEL-2 melanoma, 5.31 µM; in the test with ACHN renal, 4.4 µM; with SK-OV-3 ovarian it was 6.72 µM; in the test on HCT-15 colon, 6.43 µM. Moreover, the TGI in the test on SNB-19 CNS amounted to 3.08 µM; in the test with MOLT-4 leukemia it was 7.43 µM; in the test on SK-MEL-5 melanoma, 4.05 µM; in the test with IGROV1 ovarian, 4.68 µM.
On to `CC1(C)CCC(CN2CCN(c3ccc(C(=O)NS(=O)(=O)c4ccc(NCC5CCOCC5)c([N+](=O)[O-])c4)c(Oc4cnc5[nH]ccc5c4)c3)CC2)=C(c2ccc(Cl)cc2)C1`, for which the GI50 is 2.54 µM with M14 melanoma; 2.32 µM in the test on CCRF-CEM leukemia; 1.63 µM with SK-MEL-2 melanoma; 2.93 µM in the test on ACHN renal; 3.16 µM in the test on SK-OV-3 ovarian; 3.1 µM in the test on HCT-15 colon. Moreover, the GI50 is 3.55 µM in the test on SNB-19 CNS, 2.15 µM in the test with MOLT-4 leukemia, 1.67 µM in the test on SK-MEL-5 melanoma and 2.98 µM with IGROV1 ovarian. For the same compound, the TGI is 7.07 µM with M14 melanoma; 7.29 µM in the test with CCRF-CEM leukemia; 3.36 µM in the test on SK-MEL-2 melanoma; 10.2 µM in the test with ACHN renal; 10.9 µM with SK-OV-3 ovarian; 11.2 µM in the test with HCT-15 colon. For the same compound, the TGI in the test with SNB-19 CNS is 23.8 µM; in the test on MOLT-4 leukemia, 5.27 µM; with SK-MEL-5 melanoma, 3.09 µM; in the test on IGROV1 ovarian, 9.57 µM.
`CCOc1ccc(NC(=O)/C(=C/c2ccccc2)C(C)=O)cc1`: the TGI in the test with M14 melanoma worked out at 26 µM; in the test on CCRF-CEM leukemia, 10.5 µM; in the test with SK-MEL-2 melanoma, 26.4 µM; in the test on ACHN renal it was 35.3 µM; with SK-OV-3 ovarian it was 40.7 µM; in the test with HCT-15 colon it was 32.4 µM. In addition, the TGI is 24.9 µM in the test on SNB-19 CNS, 19.5 µM with MOLT-4 leukemia, 25.6 µM with SK-MEL-5 melanoma and 29.1 µM with IGROV1 ovarian.
As to `COc1ccc(C=O)c(N(C)C(=O)C(C)(C)C)c1`, the TGI in the test on M14 melanoma, in the test with CCRF-CEM leukemia, with SK-MEL-2 melanoma, with ACHN renal, in the test with SK-OV-3 ovarian and in the test on HCT-15 colon was over 100 µM throughout. Moreover, the TGI in the test on SNB-19 CNS, in the test on MOLT-4 leukemia, with SK-MEL-5 melanoma and in the test on IGROV1 ovarian was over 100 µM throughout.
In the case of `C=C1C(=O)C23C(O)C1CCC2C12CO[C@]3(O)[C@@H](O)C1C(C)(C)CCC2O` (some centres undefined), the TGI was determined as 24.1 µM in the test on M14 melanoma; 5.98 µM with CCRF-CEM leukemia; 30.2 µM with SK-MEL-2 melanoma; 27.2 µM in the test with ACHN renal; 34.5 µM with SK-OV-3 ovarian; 26.4 µM in the test with HCT-15 colon. Moreover, the TGI is 28.6 µM in the test with SNB-19 CNS, over 38.9 µM in the test on MOLT-4 leukemia, 37 µM in the test on SK-MEL-5 melanoma and 20.3 µM with IGROV1 ovarian.
As for `CC1OC(OC2C(OC3CCC4(C)C(CCC5(C)C4CC=C4C6CC(C)(C)CCC6(CO)C(O)CC45C)C3(C)C)OC(C(=O)O)C(OC3OC(COC4OC(CO)C(O)C(O)C4O)C(O)C(O)C3O)C2O)C(O)C(O)C1O` (centres undefined), the GI50 in the test on M14 melanoma was 2.5 µM; in the test on CCRF-CEM leukemia, 3.88 µM; in the test on SK-MEL-2 melanoma, 8.57 µM; with ACHN renal it was 4.81 µM; with SK-OV-3 ovarian, 6.08 µM; with HCT-15 colon it was 8.27 µM. Moreover, the GI50 with SNB-19 CNS was 13.9 µM; with MOLT-4 leukemia it was 2.35 µM; in the test on SK-MEL-5 melanoma it was 11.5 µM; in the test on IGROV1 ovarian, 7.1 µM. The TGI in the test on M14 melanoma was found to be 9.24 µM; with CCRF-CEM leukemia, 20.7 µM; in the test on SK-MEL-2 melanoma, 20.1 µM; with ACHN renal, 16.8 µM; in the test on SK-OV-3 ovarian, 18 µM; with HCT-15 colon, 18.8 µM. In addition, the TGI with SNB-19 CNS was 28 µM; with MOLT-4 leukemia, 8.42 µM; in the test with SK-MEL-5 melanoma it was 22.2 µM; in the test with IGROV1 ovarian it was 17.5 µM.
For `CCN1CCC(O)(c2ccccc2)C(C(=O)c2ccccc2)C1` (centres undefined), the TGI with M14 melanoma is 34.4 µM; with CCRF-CEM leukemia it was 38.3 µM; in the test with SK-MEL-2 melanoma it was over 100 µM; with ACHN renal, 30.5 µM; in the test with SK-OV-3 ovarian, over 100 µM; in the test on HCT-15 colon, over 61.2 µM. Besides, the TGI in the test on SNB-19 CNS was over 100 µM; in the test with MOLT-4 leukemia, over 60.2 µM; in the test with SK-MEL-5 melanoma it was over 100 µM; in the test on IGROV1 ovarian, over 100 µM.
`CN(C)CC1CCCC(CN(C)C)C1=O` (centres undefined): the GI50 in the test with M14 melanoma is 1.48 µM and 6.11 µM; in the test on CCRF-CEM leukemia it was 0.155 µM and 0.0588 µM; with SK-OV-3 ovarian, 17.8 µM and > 44 µM; with HCT-15 colon, 1.28 µM and 8.54 µM; in the test with MOLT-4 leukemia, 0.293 µM. In addition, the TGI in the test on M14 melanoma is 3.03 µM and 11.7 µM; in the test on CCRF-CEM leukemia, 0.559 µM and 0.21 µM; with SK-MEL-2 melanoma, 20.6 µM and 35.2 µM; in the test on ACHN renal, 2.92 µM and 3.52 µM; in the test with SK-OV-3 ovarian, 31.8 µM and > 58.3 µM; in the test on SNB-19 CNS it was 68 µM and > 65.4 µM. The TGI was 1.14 µM and 2.08 µM in the test with MOLT-4 leukemia; 21 µM and 30.3 µM in the test on SK-MEL-5 melanoma; 37.2 µM and 38.4 µM in the test with IGROV1 ovarian.
